ChEMBL document CHEMBL1201862, “PubChem BioAssay data set” (2004)
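Exposure lasted 48 hours, with cells grown in 96-well plates and compounds tested at five concentrations. GI50 is the concentration that inhibits growth by half.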 Activity calls are given as the source filed them. Cut-off read from the data, not from the text of the source: active = GI50 up to about 1.1 µM and inactive = higher.

Columns and labels:
Assay in all cases: NCI-60 cell line screen, 48 h
NCI-H226 = system: NCI-H226
HOP-62 = system: HOP-62
HCC 2998 = system: HCC 2998
TK-10 = system: TK-10
EKVX = system: EKVX
OVCAR-4 = system: OVCAR-4
HCT-15 = system: HCT-15
U-251 = system: U-251
K562 = system: K562
LOX IMVI = system: LOX IMVI
SNB-75 = system: SNB-75
OVCAR-3 = system: OVCAR-3
HT-29 = system: HT-29
ACHN = system: ACHN
HOP-92 = system: HOP-92
SK-OV-3 = system: SK-OV-3

Row | Compound | GI50 (NCI-H226) | GI50 (HOP-62) | GI50 (HCC 2998) | GI50 (TK-10) | GI50 (EKVX) | GI50 (OVCAR-4) | GI50 (HCT-15) [µM] | GI50 (U-251) | GI50 (K562) | GI50 (LOX IMVI) | GI50 (SNB-75) | GI50 (OVCAR-3) | GI50 (HT-29) | GI50 (ACHN) | GI50 (HOP-92) | GI50 (SK-OV-3)
1 | CNS(=O)(=O)NN(C)S(=O)(=O)c1ccc(Br)cc1 | > 100 µM (inactive) | > 100 µM (inactive) | > 100 µM (inactive) | > 100 µM (inactive) | > 100 µM (inactive) | > 100 µM (inactive) | > 100 | 72.9 µM (inactive) | > 100 µM (inactive) | > 100 µM (inactive) | > 100 µM (inactive) | > 100 µM (inactive) | > 100 µM (inactive) | > 100 µM (inactive) |  | 
2 | COC(=O)c1c(-c2ccccc2)sc(-c2cccc3ccccc23)c1C(=O)OC | > 100 µM (inactive) |  | 88.3 µM (inactive) | > 100 µM (inactive) | > 100 µM (inactive) | 84.7 µM (inactive) | > 100 | > 100 µM (inactive) | > 100 µM (inactive) | > 100 µM (inactive) | > 100 µM (inactive) | 81.1 µM (inactive) | 51.3 µM (inactive) | > 100 µM (inactive) | > 100 µM (inactive) | > 100 µM (inactive)
3 | Cc1c(/C=N/NC(=O)c2cc(Br)cc(Br)c2O)c(=O)n(-c2ccccc2)n1C | 90.6 µM (inactive) | 52.7 µM (inactive) | > 100 µM (inactive) | 69.8 µM (inactive) | > 100 µM (inactive) | > 100 µM (inactive) | 39.1 | 69 µM (inactive) | 51.4 µM (inactive) | 6.53 µM (inactive) | > 100 µM (inactive) | 29.9 µM (inactive) | 64.7 µM (inactive) | 51.1 µM (inactive) | 30.1 µM (inactive) | > 100 µM (inactive)
4 | COC1=CC(=O)C2C(C1=O)[C@@H]1c3ccccc3OC(C)(C)[C@H]21 (stereo partly specified) | 19.1 µM (inactive) | > 100 µM (inactive) | > 100 µM (inactive) | 21.1 µM (inactive) | 31.9 µM (inactive) | 17.9 µM (inactive) | 19.9 | 53.2 µM (inactive) | 19 µM (inactive) | 14.2 µM (inactive) | 10.6 µM (inactive) | 15.1 µM (inactive) | 28.1 µM (inactive) | 14.2 µM (inactive) | 20.5 µM (inactive) | 90.4 µM (inactive)
5 | NC(CCc1ncc(-c2ccccc2)s1)C(=O)O (stereo unspecified) | 17.4 µM (inactive) |  | > 100 µM (inactive) | > 100 µM (inactive) | > 100 µM (inactive) |  | > 100 | > 100 µM (inactive) | > 100 µM (inactive) | > 100 µM (inactive) | 85.9 µM (inactive) | > 100 µM (inactive) | > 100 µM (inactive) | > 100 µM (inactive) | > 100 µM (inactive) | > 100 µM (inactive)
6 | CCOC(=O)C1=C(O)C(=O)c2cc(C)ccc2C1=O | 22.2 µM (inactive) | 63.4 µM (inactive) | > 100 µM (inactive) | > 100 µM (inactive) | > 100 µM (inactive) | > 100 µM (inactive) | 77.8 | > 100 µM (inactive) | > 100 µM (inactive) | 55.2 µM (inactive) | 43.5 µM (inactive) | 93.3 µM (inactive) | > 100 µM (inactive) | > 100 µM (inactive) | > 100 µM (inactive) | > 100 µM (inactive)
7 | Cc1c(C(=O)CSc2nc3cc([N+](=O)[O-])ccc3[nH]2)c(=O)n(-c2ccccc2)n1C | > 100 µM (inactive) | > 100 µM (inactive) | 36.6 µM (inactive) | > 100 µM (inactive) |  | > 100 µM (inactive) | > 100 | > 100 µM (inactive) |  | > 100 µM (inactive) | > 100 µM (inactive) | 71.8 µM (inactive) | > 100 µM (inactive) | > 100 µM (inactive) | > 100 µM (inactive) | > 100 µM (inactive)
8 | Cc1c(N2CCOCC2)nc2ccc(Cl)cc2c1-c1ccccc1 |  | > 100 µM (inactive) | 40.9 µM (inactive) | > 100 µM (inactive) | 91.8 µM (inactive) | 50.7 µM (inactive) | 42.6 | 89.9 µM (inactive) | 31.6 µM (inactive) | 49.4 µM (inactive) | 31.4 µM (inactive) | 64.7 µM (inactive) | 57.1 µM (inactive) | 69 µM (inactive) | 42.7 µM (inactive) | > 100 µM (inactive)
9 | Cc1cc2c(=O)c3ccc(Cl)cc3[nH]c2c(C(N)=O)c1C |  | > 100 µM (inactive) | > 100 µM (inactive) | > 100 µM (inactive) | > 100 µM (inactive) | > 100 µM (inactive) | > 100 | > 100 µM (inactive) | 83.2 µM (inactive) | > 100 µM (inactive) | 35.5 µM (inactive) | > 100 µM (inactive) | > 100 µM (inactive) | > 100 µM (inactive) | > 100 µM (inactive) | > 100 µM (inactive)
10 | COC(=O)/C(C#N)=C(\N)C(Cl)(Cl)Cl |  | 16.1 µM (inactive) | 3.06 µM (inactive) | 2.55 µM (inactive) | 4.68 µM (inactive) | 2.67 µM (inactive) | 2.2 | 16.5 µM (inactive) | 0.442 µM (active) | 2.65 µM (inactive) | 3.85 µM (inactive) | 3.3 µM (inactive) |  | 2.37 µM (inactive) | 2.99 µM (inactive) | 1.81 µM (inactive)
11 | COc1cc(NCC(C#N)C#N)ccc1/N=N/c1ccc([N+](=O)[O-])cc1 | > 100 µM (inactive) | > 100 µM (inactive) | > 100 µM (inactive) | > 100 µM (inactive) | > 100 µM (inactive) | > 100 µM (inactive) | > 100 | > 100 µM (inactive) | 91.2 µM (inactive) | > 100 µM (inactive) | 30.7 µM (inactive) | 64.3 µM (inactive) | > 100 µM (inactive) | > 100 µM (inactive) |  | > 100 µM (inactive)
12 | CC1OC(OC2CCCc3c(O)c4c(c(O)c32)C(=O)c2ccccc2C4=O)CC(N)C1O (stereo unspecified) | 1.69 µM (inactive) | 1.57 µM (inactive) | 2.07 µM (inactive) | 1.6 µM (inactive) | 1.71 µM (inactive) | 1.68 µM (inactive) |  | 1.86 µM (inactive) | 1.01 µM (active) | 1.61 µM (inactive) | 1.35 µM (inactive) | 1.34 µM (inactive) | 1.47 µM (inactive) | 1.88 µM (inactive) | 1.43 µM (inactive) | 1.15 µM (inactive)
13 | CCCOP1(=O)C=CC(Cl)=C(C)C1 (stereo unspecified) |  | > 100 µM (inactive) | > 63.1 µM (inactive) | 42.4 µM (inactive) | > 51.5 µM (inactive) | 36.6 µM (inactive) | 16.8 | 40.1 µM (inactive) | 12 µM (inactive) | 32.3 µM (inactive) | 55.8 µM (inactive) | 27.4 µM (inactive) | 55.3 µM (inactive) | 24.9 µM (inactive) | 33.1 µM (inactive) | > 100 µM (inactive)
14 | CCCN1CN(C(C(=O)N[C@@H]2C(=O)N3C2SC(C)(C)C3C(=O)O)c2ccccc2)CSC1=S (stereo partly specified) |  | > 100 µM (inactive) |  | > 100 µM (inactive) | > 100 µM (inactive) | > 100 µM (inactive) | 80.5 | > 100 µM (inactive) | 41.6 µM (inactive) | 50.9 µM (inactive) | > 100 µM (inactive) | 32.2 µM (inactive) | 48.1 µM (inactive) | > 100 µM (inactive) | > 100 µM (inactive) | > 100 µM (inactive)
15 | COc1cc2c(cc1OC)C(=O)C(C1=C(SC(=N)N)C(=O)c3cc(OC)c(OC)cc31)C2 (stereo unspecified) | > 100 µM (inactive) | 71.4 µM (inactive) | > 100 µM (inactive) |  | > 100 µM (inactive) | 78.9 µM (inactive) | > 100 | > 100 µM (inactive) | > 100 µM (inactive) | > 100 µM (inactive) | > 100 µM (inactive) | > 100 µM (inactive) | > 100 µM (inactive) | > 100 µM (inactive) |  | > 100 µM (inactive)
16 | CCOc1ccc(/C=C/C(=O)c2sc(NNC(C)=O)nc2C)cc1 |  | > 100 µM (inactive) | > 100 µM (inactive) | > 100 µM (inactive) | 85.1 µM (inactive) |  | > 100 | > 100 µM (inactive) | > 100 µM (inactive) | > 100 µM (inactive) | > 100 µM (inactive) | > 100 µM (inactive) | > 100 µM (inactive) | > 100 µM (inactive) | > 100 µM (inactive) | > 100 µM (inactive)
17 | COc1nc2nccc-2c2occn12 |  | > 100 µM (inactive) | > 100 µM (inactive) | > 100 µM (inactive) | > 100 µM (inactive) | > 100 µM (inactive) | > 100 | > 100 µM (inactive) | > 100 µM (inactive) | > 100 µM (inactive) | > 100 µM (inactive) | > 100 µM (inactive) | > 100 µM (inactive) | > 100 µM (inactive) | > 100 µM (inactive) | > 100 µM (inactive)
18 | O=C1O[B-](c2ccccc2)(c2ccccc2)[NH2+]C1CS (stereo unspecified) | 68.4 µM (inactive) | > 100 µM (inactive) | 49.7 µM (inactive) | 85.1 µM (inactive) | > 100 µM (inactive) | 47.2 µM (inactive) | 36 | 63.5 µM (inactive) | 23.9 µM (inactive) | 24.3 µM (inactive) | 34.8 µM (inactive) | 38.8 µM (inactive) | 71.3 µM (inactive) | 36.7 µM (inactive) | 27.3 µM (inactive) | > 100 µM (inactive)
19 | CCOC(=O)N[C@@H]1C(CC(=O)OC)O[C@H]2OC(C)(C)O[C@H]21 (stereo partly specified) | > 100 µM (inactive) | > 100 µM (inactive) | > 100 µM (inactive) |  |  | > 100 µM (inactive) | > 100 | > 100 µM (inactive) | > 100 µM (inactive) | > 100 µM (inactive) | > 100 µM (inactive) | > 100 µM (inactive) | > 100 µM (inactive) | > 100 µM (inactive) | > 100 µM (inactive) | > 100 µM (inactive)
